Experimental data taken from the NIST ThermoML archive (doi:10.1016/j.jct.2006.08.003).
Numbers after ± are expanded uncertainties.

Test: mn = molality of the nth substance listed, in mol/kg
Settings: 298.15 K, 101 kPa, Liquid; for speed of sound: Sing-around technique in a fixed-path interferometer

CC(=O)[O-].CC(=O)[O-].[Mg+2] [magnesium acetate] + O
Settings	speed of sound [m/s]
m1 = 0.5	1571.7 ± 1.4
m1 = 1	1630.4 ± 1.4
m1 = 1.5	1680.2 ± 1.4
m1 = 2	1724.4 ± 1.4

C[C@@H](O)[C@H](N)C(=O)O [L-threonine] + O
Settings	mass density [kg/m3]	speed of sound [m/s]
m1 = 0.04618	998.993 ± 0.44	–
m1 = 0.1013	1001.29 ± 0.44	1504.7 ± 1.5
m1 = 0.1405	1002.91 ± 0.45	1507.7 ± 1.5
m1 = 0.1798	1004.51 ± 0.45	1510.9 ± 1.5
m1 = 0.2227	1006.26 ± 0.46	1514.3 ± 1.5
m1 = 0.2524	1007.45 ± 0.46	1516.6 ± 1.5
m1 = 0.2755	1008.38 ± 0.47	1518.7 ± 1.5

N[C@@H](CO)C(=O)O [L-serine] + O
Settings	mass density [kg/m3]	speed of sound [m/s]
m1 = 0.1015	1001.52 ± 0.24	1503 ± 1.3
m1 = 0.1508	1003.67 ± 0.25	1506.1 ± 1.3
m1 = 0.1958	1005.62 ± 0.25	1509 ± 1.3
m1 = 0.2564	1008.21 ± 0.26	1512.7 ± 1.3
m1 = 0.2888	1009.59 ± 0.26	1514.9 ± 1.3
m1 = 0.3655	1012.8 ± 0.27	1519.8 ± 1.3

CC(=O)[O-].[Na+] [sodium ethanoate] + O
Settings	speed of sound [m/s]
m1 = 0.5	1547.6 ± 1.3
m1 = 1	1590.4 ± 1.3
m1 = 2	1658 ± 1.4
m1 = 4	1761.8 ± 1.4
